This note sets out measurements from publication PMC6774887 (Molecular cancer therapeutics, 2019).

In data set [1] the target is T1, SHMT1 (Homo sapiens, UniProt P34896).
T1 sequence (P34896 7-478): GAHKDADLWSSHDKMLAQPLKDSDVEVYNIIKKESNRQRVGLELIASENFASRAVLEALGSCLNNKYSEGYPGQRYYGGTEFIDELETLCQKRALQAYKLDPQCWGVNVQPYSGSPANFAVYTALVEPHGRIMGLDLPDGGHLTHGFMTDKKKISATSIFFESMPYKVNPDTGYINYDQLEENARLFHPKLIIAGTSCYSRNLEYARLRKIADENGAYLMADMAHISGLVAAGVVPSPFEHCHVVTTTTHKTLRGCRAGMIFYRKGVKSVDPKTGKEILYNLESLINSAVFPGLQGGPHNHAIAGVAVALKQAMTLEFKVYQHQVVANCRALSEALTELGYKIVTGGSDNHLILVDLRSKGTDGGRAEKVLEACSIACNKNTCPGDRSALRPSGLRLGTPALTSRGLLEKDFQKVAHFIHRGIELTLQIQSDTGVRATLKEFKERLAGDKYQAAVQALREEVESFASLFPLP
The data set can be described thus: coupled SHMT/MTHFD2 assay, NADH fluorescence. It counts as biochemical. As to conditions: Ki = IC50/([S]/KM+[…]); KM of THF […]; His-MTHFD2 in […] molar excess.

Data set [2] deals with T2, MTHFD2 (Homo sapiens, UniProt P13995).
T2 sequence (P13995 36-333): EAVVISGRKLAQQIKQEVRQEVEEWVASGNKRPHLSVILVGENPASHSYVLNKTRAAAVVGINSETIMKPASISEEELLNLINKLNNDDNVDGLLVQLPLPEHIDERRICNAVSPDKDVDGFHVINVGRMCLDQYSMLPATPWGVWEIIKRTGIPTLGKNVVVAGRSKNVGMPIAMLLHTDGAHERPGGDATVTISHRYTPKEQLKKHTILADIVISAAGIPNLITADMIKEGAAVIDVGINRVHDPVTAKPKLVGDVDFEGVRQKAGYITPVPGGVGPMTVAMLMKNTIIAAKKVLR
The data set can be described thus: NAD. It counts as biochemical.

Data set [3] addresses T3, SHMT2 (Homo sapiens, UniProt P34897).
T3 sequence (P34897 42-504): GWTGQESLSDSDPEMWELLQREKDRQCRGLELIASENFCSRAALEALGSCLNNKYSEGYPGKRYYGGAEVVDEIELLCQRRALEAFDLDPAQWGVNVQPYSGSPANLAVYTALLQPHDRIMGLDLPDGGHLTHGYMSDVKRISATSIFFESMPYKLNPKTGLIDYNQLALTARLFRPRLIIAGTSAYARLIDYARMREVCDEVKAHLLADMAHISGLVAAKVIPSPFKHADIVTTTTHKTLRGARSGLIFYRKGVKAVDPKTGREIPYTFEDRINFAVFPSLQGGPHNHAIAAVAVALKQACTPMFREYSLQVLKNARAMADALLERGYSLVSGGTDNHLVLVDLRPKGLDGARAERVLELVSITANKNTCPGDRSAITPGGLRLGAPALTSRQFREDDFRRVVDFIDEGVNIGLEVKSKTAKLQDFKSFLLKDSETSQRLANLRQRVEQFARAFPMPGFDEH
Nature of the data set: coupled SHMT/MTHFD2 assay, NADH fluorescence. It counts as biochemical. As to conditions: Ki = IC50/([S]/KM+[…]); KM of THF […]; His-MTHFD2 in […] molar excess.

The target in data set [4] is T4, AICARFTase (ATIC) (Homo sapiens, UniProt P31939). The data set can be described thus: spectrophotometric THF formation from 10-formyl-THF. It counts as biochemical. As to conditions: Ki = IC50/([S]/KM+[…]); KM of […]-formyl-THF […].
The target of data set [5] is T4, AICARFTase (ATIC). The data set can be described thus: spectrophotometric THF formation. It counts as biochemical.
Data set [6] has as its target T3, SHMT2. The data set can be described thus: coupled SHMT/MTHFD2 assay, NADH fluorescence. It counts as biochemical. As to conditions: His-MTHFD2 in […] molar excess.
Data set [7] deals with T1, SHMT1. Nature of the data set: coupled SHMT/MTHFD2 assay, NADH fluorescence. As to conditions: His-MTHFD2 in […] molar excess. It counts as biochemical.
Substrate in data set [8]: Nc1nc2c(c(=O)[nH]1)N[C@@H](CN(C=O)c1ccc(C(=O)N[C@@H](CCC(=O)O)C(=O)O)cc1)CN2
The data set can be described thus: spectrophotometric THF formation. It counts as biochemical, Homo sapiens.

T4 sequence (P31939 whole entry): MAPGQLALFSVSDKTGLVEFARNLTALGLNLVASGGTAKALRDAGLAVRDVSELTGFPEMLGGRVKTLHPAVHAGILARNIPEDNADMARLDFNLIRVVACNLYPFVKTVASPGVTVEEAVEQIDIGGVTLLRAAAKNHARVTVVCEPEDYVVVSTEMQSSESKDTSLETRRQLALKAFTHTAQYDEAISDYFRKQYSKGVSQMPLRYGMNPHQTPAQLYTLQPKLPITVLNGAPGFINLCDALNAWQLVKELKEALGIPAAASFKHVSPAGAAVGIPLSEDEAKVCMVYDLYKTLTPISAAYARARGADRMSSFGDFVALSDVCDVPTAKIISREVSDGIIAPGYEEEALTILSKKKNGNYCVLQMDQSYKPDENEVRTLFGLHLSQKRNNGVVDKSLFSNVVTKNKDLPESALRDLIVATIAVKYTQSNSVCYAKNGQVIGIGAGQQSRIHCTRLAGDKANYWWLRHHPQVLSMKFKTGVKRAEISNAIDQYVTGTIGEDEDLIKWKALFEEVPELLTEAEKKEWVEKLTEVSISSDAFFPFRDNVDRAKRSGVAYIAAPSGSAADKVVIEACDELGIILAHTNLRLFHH

As for `Nc1nc(=O)c2c(CCc3ccc(C(=O)N[C@@H](CCC(=O)O)C(=O)O)cc3)c[nH]c2[nH]1` [PMX], the “NI (no inhibition up to 200 μM inhibitor; Ki column)” value in data set [1], in data set [2] and in data set [3] was over 200 µM in each case. For `Nc1nc2[nH]c(CCCc3ccc(C(=O)N[C@@H](CCC(=O)O)C(=O)O)s3)cc2c(=O)[nH]1` [AGF94], the “NI (no inhibition up to 200 μM inhibitor; Ki column)” value in data set [4] and in data set [2] was over 200 µM in each case. `Nc1nc2c(c(=O)[nH]1)N[C@@H](CN(C=O)c1ccc(C(=O)N[C@@H](CCC(=O)O)C(=O)O)cc1)CN2` [10-formyl-THF]: the Km in data set [5] was 100 µM. For `Nc1nc2c(c(=O)[nH]1)N[C@@H](CNc1ccc(C(=O)N[C@@H](CCC(=O)O)C(=O)O)cc1)CN2` [THF], the Km stood at 108 µM in data set [6] and 62.8 µM in data set [7]. Consider AGF320, for which the “NI (no inhibition up to 200 μM inhibitor; Ki column)” value in data set [2] is over 200 µM.

B1: GARFTase (Homo sapiens) (protein)
chain: ARVAVLISGTGSNLQALIDSTREPNSSAQIDIVISNKAAVAGLDKAERAGIPTRVINHKLYKNRVEFDSAIDLVLEEFSIDIVCLAGFMRILSGPFVQKWNGKMLNIHPSLLPSFKGSNAHEQALETGVTVTGCTVHFVAEDVDAGQIILQEAVPVKRGDTVATLSERVKLAEHKIFPAALQLVASGTVQLGENGKICWVKEE
Consider B1, for which the Km in data set [8] was determined as 84.8 µM.

As usually defined, the Km is the substrate concentration at which the rate is half of its maximum.
